Test results reported in publication PMC6021035, “Insights into biological activity of ureidoamides with primaquine and amino acid moieties” (Journal of Enzyme Inhibition and Medicinal Chemistry, 2018).
Like-named read-outs stand apart in the source and are kept apart here.

What was measured:
[1] = biological target: T1, soybean lipoxygenase (LOX) (Glycine max, UniProt P08170); assay: In vitro soybean lipoxygenase (LOX) inhibition; assay type: biochemical; settings: for IC50: sodium linoleate 0.1 mM, read-out: LOX inhibition (IC50 μM) ± SD
T1 construct: purchased Sigma-Aldrich
T1 sequence (P08170 1-839): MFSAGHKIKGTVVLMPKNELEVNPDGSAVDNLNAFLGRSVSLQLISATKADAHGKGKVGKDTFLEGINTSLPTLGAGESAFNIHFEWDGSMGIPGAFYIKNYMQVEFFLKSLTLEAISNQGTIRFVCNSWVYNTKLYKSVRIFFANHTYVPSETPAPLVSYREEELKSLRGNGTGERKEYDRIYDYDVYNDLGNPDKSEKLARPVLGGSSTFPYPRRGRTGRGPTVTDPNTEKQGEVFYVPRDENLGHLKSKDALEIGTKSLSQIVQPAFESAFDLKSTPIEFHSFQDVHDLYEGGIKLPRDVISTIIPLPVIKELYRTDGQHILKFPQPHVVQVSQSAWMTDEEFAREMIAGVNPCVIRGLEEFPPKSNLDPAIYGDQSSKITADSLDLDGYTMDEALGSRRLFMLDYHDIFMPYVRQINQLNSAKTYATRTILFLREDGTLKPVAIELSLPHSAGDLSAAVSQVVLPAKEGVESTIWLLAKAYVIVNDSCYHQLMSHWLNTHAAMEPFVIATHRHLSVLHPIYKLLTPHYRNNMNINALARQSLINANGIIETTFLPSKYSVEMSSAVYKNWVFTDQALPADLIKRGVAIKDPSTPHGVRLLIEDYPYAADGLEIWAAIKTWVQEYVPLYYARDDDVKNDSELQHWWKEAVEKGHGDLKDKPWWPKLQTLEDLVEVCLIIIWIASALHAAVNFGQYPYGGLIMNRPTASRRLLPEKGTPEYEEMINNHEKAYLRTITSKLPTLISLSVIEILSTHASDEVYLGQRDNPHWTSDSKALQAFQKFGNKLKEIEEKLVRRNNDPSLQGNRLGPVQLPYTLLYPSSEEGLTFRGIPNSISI
Procedure: In vitro LOX inhibition assay was accomplished as described previously. Test compounds (stock solutions 10 mM in DMSO) were incubated at room temperature with sodium linoleate (0.1 mM) and 0.2 ml of LOX solution (0.1 mg in 10 ml saline). Conversion of sodium linoleate to 13-hydroperoxylinoleic acid was measured at 234 nm and compared to the reference inhibitor. Several concentrations were used for IC50 determination.

[2] = test system: Staphylococcus aureus ATCC 6538; assay: Minimum biofilm eradication assay; assay type: cell-based
[3] = test system: Enterococcus faecalis ATCC 29212; assay: Minimum biofilm eradication assay; assay type: cell-based
[4] = test system: Staphylococcus aureus ATCC 25213; assay: Minimum biofilm eradication assay; assay type: cell-based
[5] = test system: Candida parapsylosis ATCC 22019; assay: Minimum biofilm eradication assay; assay type: cell-based
[6] = test system: Escherichia coli ATCC 8739; assay: Minimum biofilm eradication assay; assay type: cell-based
[7] = test system: Pseudomonas aeruginosa ATCC 27853; assay: Minimum biofilm eradication assay; assay type: cell-based
[8] = In vitro haemolytic activity; assay type: cell-based; settings: male, 4% human erythrocytes, read-out: Haemolysis (%); for hemolysis at 1 h, 50 µg/ml: pH 7, 50 μg/ml; for hemolysis at 1 h, 100 µg/ml: pH 7, 100 μg/ml; for hemolysis at 1 h, 200 µg/ml: pH 7, 200 μg/ml
Procedure: Then, 4% (v/v) of fresh human erythrocyte solution (hErc) was prepared using a PBS pH 7.0 solution. A series of diluted compounds from 200 to 50 µg/ml were prepared in a total volume of 1 ml with hErc solution. […] Absorbance of the supernatant (200 µl) was recorded at 540 nm using an iEMS microplate reader. The 0.1% (v/v) solution of Triton X100 served as a positive control (as total lysis of hErc), and intact hErc served as a negative control. […] All tests were performed in triplicate and the results were expressed as haemolysis percentage (mean ± SD). Percentage of haemolysis was calculated using the following equation: haemolysis %=Asample-Anc/Apc-Anc×100 where Asample was absorbance of the tested compound, Anc was absorbance of the negative control (intact hErc) and Apc was absorbance of the positive control treated with 0.1% TritonX100. In statistical calculations, p values below 0.05 were considered significant throughout the test. For comparison of mean values, one-way ANOVA with Dunnet’s post-test was used.

[9] = Inhibition of linoleic acid peroxidation (LP), AAPH-initiated; set-up: tested at 100 µM; settings: 100 μΜ, 37 °C
Procedure: To initiate lipid peroxidation, the free radical AAPH was used[10]. The final solution in the UV cuvette consisted of 10 µl sodium linoleate solution (c = 16 mM) and 0.93 ml phosphate buffer pH 7.4 (c = 50 mM). Afterwards, 10 µl of the tested compound solution in DMSO (final concentration 0.1 mM) and 50 µl of AAPH solution (c = 40 mM) were added. The experiment was performed at 37 °C under air. Oxidation of linoleic acid sodium salt was monitored at 234 nm. The assay was repeated at least in triplicate and the standard deviation of absorbance was less than 10% of the mean. Trolox was used under the same experimental conditions as a reference compound.

[10] = 4% (v/v) fresh human erythrocyte suspension

Compound | LOX inhibition, per cent ([1]; 100 μΜ (footnotes a, c)) | melting point [°C] | MBEC [2] [µg/mL] | MBEC [3] [µg/mL] | MBEC [4] [µg/mL] | MBEC [5] [µg/mL] | MBEC [6] [µg/mL] | MBEC [7] [µg/mL] | hemolysis at 1 h, 50 µg/ml [8, 10] [%] | hemolysis at 1 h, 100 µg/ml [8, 10] [%] | hemolysis at 1 h, 200 µg/ml [8, 10] [%] | LP inhibition (%) ± SD [9] [%] | IC50 [1] [µM] | hemolysis at 1 h, 50 µg/ml [8] [%] | hemolysis at 1 h, 100 µg/ml [8] [%] | hemolysis at 1 h, 200 µg/ml [8] [%]
COc1cc(NC(C)CCCNC(=O)NC(CC(C)C)C(=O)NC(c2ccccc2)c2ccccc2)c2ncccc2c1 (stereo not drawn) [Compound 5a, N-(diphenylmethyl)-2-[({4-[(6-methoxyquinolin-8-yl)amino]pentyl}carbamoyl)amino]-4-methylpentanamide] | 40.0 ± 1.0^a^,^c per cent | 184.5 to 185.5 | 12.5 | >100 | 25 | >100 | 6.25 | 25 | 3.14 ± 0.04 | 4.03 ± 0.03 | 4.24 ± 0.07 | 15 ± 0.7 |  |  |  | 
COc1cc(NC(C)CCCNC(=O)NC(C(=O)N(C)C(c2ccccc2)c2ccccc2)c2ccccc2)c2ncccc2c1 (stereo not drawn) [Compound 5b, N-(diphenylmethyl)-2-[({4-[(6-methoxyquinolin-8-yl)amino]pentyl}carbamoyl)amino]-N-methyl-2-phenylacetamide] |  |  | >100 | >100 | >100 | >100 | 12.5 | >100 | 3.13 ± 0.05 | 3.94 ± 0.05 | 4.04 ± 0.08 | 92 ± 3.2 | 69 ± 2 |  |  | 
COc1cc(NC(C)CCCNC(=O)NC(C(=O)NC(c2ccccc2)c2ccc(Cl)cc2)c2ccccc2)c2ncccc2c1 (stereo not drawn) [Compound 5c, N-[(4-chlorophenyl)(phenyl)methyl]-2-[({4-[(6-methoxyquinolin-8-yl)amino]pentyl}carbamoyl)amino]-2-phenylacetamide] |  |  | >100 | >100 | >100 | >100 | 6.25 | 25 | 3.06 ± 0.05 | 4.26 ± 0.07 | 4.89 ± 0.13 | 99 ± 2.8 | 40 ± 1.5 |  |  | 
COc1cc(NC(C)CCCNC(=O)NC(C(=O)NC(c2ccccc2)c2ccccc2)c2ccc(Cl)cc2)c2ncccc2c1 (stereo not drawn) [Compound 5d, 2–(4-chlorophenyl)-N-(diphenylmethyl)-2-[({4-[(6-methoxyquinolin-8-yl)amino]pentyl}carbamoyl)amino]acetamide] |  | 180 to 183 | 25 | >100 | 25 | >100 | 25 | 50 | 2.56 ± 0.05 | 2.94 ± 0.04 | 3.07 ± 0.05 | 90 ± 4.5 | 41.5 ± 3.1 |  |  | 
COc1cc(NC(C)CCCNC(=O)NC(C(=O)NC(c2ccccc2)c2ccc(Cl)cc2)c2ccc(Cl)cc2)c2ncccc2c1 (stereo not drawn) [Compound 5e, 2–(4-chlorophenyl)-N-[(4-chlorophenyl)(phenyl)methyl]-2-[({4-[(6-methoxyquinolin-8-yl)amino]pentyl}carbamoyl)amino]acetamide] |  | 150 to 151.5 | >100 | >100 | >100 | >100 | 50 | >100 | 2.78 ± 0.04 | 3.23 ± 0.05 | 3.7 ± 0.08 | 80 ± 2.7 | 56 ± 2.3 |  |  | 
COc1ccc(C(=NNC(=O)C(NC(=O)NCCCC(C)Nc2cc(OC)cc3cccnc23)c2ccc(Cl)cc2)c2ccccc2)cc1 (stereo not drawn) [Compound 5f, 3-[(4-chlorophenyl)({N'-[(4-methoxyphenyl)(phenyl)methylidene]hydrazinecarbonyl})methyl]-1-{4-[(6-methoxyquinolin-8-yl)amino]pentyl}urea] |  |  | >100 | >100 | >100 | >100 | 6.25 | >100 | 3.32 ± 0.05 | 3.66 ± 0.05 | 4.03 ± 0.09 | 90 ± 3.6 | 67.5 ± 1.1 |  |  | 
COc1cc(NC(C)CCCN)c2ncccc2c1 (stereo not drawn) [PQ, 8-[(4-amino-1-methylbutyl)amino]-6-methoxyquinoline, reference compound] |  |  | 50 | >100 | >100 | 50 | 25 | 50 |  |  |  |  |  | 2.08 ± 0.05 | 2.53 ± 0.04 | 3.12 ± 0.07
